{"source": "patent US20230100429A1", "about": "“LIVE-PATHOGEN-MIMETIC NANOPARTICLES BASED ON PATHOGEN CELL WALL SKELETON, AND PRODUCTION METHOD THEREOF” (priority 2020, published 2023)", "test": "Toxicity evaluation, plasma AST and ALT after subcutaneous injection", "type": "in vivo, C57BL/6 mouse", "conditions": "25 μg resiquimod, over time, FIG. 6", "protocol": "To evaluate the toxicity of a live pathogen-mimetic nano-molecule, a live pathogen-mimetic nano-molecule, a CWS-nanodispersion, resiquimod (R848; free drug), or a mixture of a CWS-nanodispersion and resiquimod (R848; free drug), which was added to a 50 μL of phosphate buffered saline (PBS) to have a resiquimod concentration of 25 μg, was subcutaneously injected into the right flank of a C57BL/6 mouse. Then, blood was extracted from the mouse at fixed time intervals and centrifuged at 12,000 rpm to isolate plasma. Then, the concentrations of aspartate transaminase (AST) and alanine transaminase (ALT) contained in the isolated plasma were measured using ELISA.", "data": [{"smiles": "CCOCc1nc2c(N)nc3ccccc3c2n1CC(C)(C)O", "note": "[resiquimod]", "values": [{"measurement": "plasma ALT concentration (hepatotoxicity indicator)", "result": "initially increased"}, {"measurement": "plasma AST concentration (hepatotoxicity indicator)", "result": "initially increased"}]}]}
